Reference: PubChem BioAssay (NCI)
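Dose response: 5 concentrations. Exposure: 48 h. Format: 96-well plates. Endpoint: linear interpolation; highest concentration if not reached. At the TGI there is no net growth.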

Columns and labels:
Test in all cases: inhibition of tumour cell growth, NCI panel, 48 h
U251 CNS = test system: U251 CNS
UO-31 renal = test system: UO-31 renal
MDA-MB-231 breast = test system: MDA-MB-231 breast
SK-MEL-28 melanoma = test system: SK-MEL-28 melanoma
HOP-92 NSCLC = test system: HOP-92 NSCLC
DU-145 prostate = test system: DU-145 prostate
MDA-MB-435 = test system: MDA-MB-435
786-0 renal = test system: 786-0 renal
HL-60(TB) leukemia = test system: HL-60(TB) leukemia
SF-268 CNS = test system: SF-268 CNS
HS 578T breast = test system: HS 578T breast
SR leukemia = test system: SR leukemia
M14 melanoma = test system: M14 melanoma
NCI-H23 lung = test system: NCI-H23 lung
LOX IMVI melanoma = test system: LOX IMVI melanoma
UACC-257 melanoma = test system: UACC-257 melanoma
PC-3 prostate = test system: PC-3 prostate
NCI-H226 lung = test system: NCI-H226 lung
OVCAR-8 ovarian = test system: OVCAR-8 ovarian
MOLT-4 leukemia = test system: MOLT-4 leukemia
CAKI-1 renal = test system: CAKI-1 renal
SK-MEL-2 melanoma = test system: SK-MEL-2 melanoma
K-562 leukemia = test system: K-562 leukemia
CCRF-CEM leukemia = test system: CCRF-CEM leukemia
UACC-62 melanoma = test system: UACC-62 melanoma
TK-10 renal = test system: TK-10 renal
HT29 colon = test system: HT29 colon
MDA-N = test system: MDA-N
ACHN renal = test system: ACHN renal
MCF7 breast = test system: MCF7 breast
SW-620 colon = test system: SW-620 colon
SN12C renal = test system: SN12C renal
OVCAR-3 ovarian = test system: OVCAR-3 ovarian
NCI-H460 lung = test system: NCI-H460 lung
OVCAR-4 ovarian = test system: OVCAR-4 ovarian
NCI-H522 lung = test system: NCI-H522 lung
SNB-75 CNS = test system: SNB-75 CNS
BT-549 breast = test system: BT-549 breast
HCC-2998 colon = test system: HCC-2998 colon
HCT-116 colon = test system: HCT-116 colon
EKVX NSCLC = test system: EKVX NSCLC
RPMI-8226 leukemia = test system: RPMI-8226 leukemia
A549 NSCLC = test system: A549 NSCLC
HCT-15 colon = test system: HCT-15 colon
SNB-19 CNS = test system: SNB-19 CNS
NCI/ADR-RES ovarian = test system: NCI/ADR-RES ovarian
KM12 colon = test system: KM12 colon
SF-539 CNS = test system: SF-539 CNS
COLO 205 colon = test system: COLO 205 colon
IGROV1 ovarian = test system: IGROV1 ovarian
HOP-62 NSCLC = test system: HOP-62 NSCLC
SF-295 CNS = test system: SF-295 CNS
MALME-3M melanoma = test system: MALME-3M melanoma
SK-OV-3 ovarian = test system: SK-OV-3 ovarian
OVCAR-5 ovarian = test system: OVCAR-5 ovarian
RXF 393 renal = test system: RXF 393 renal
SK-MEL-5 melanoma = test system: SK-MEL-5 melanoma
T-47D breast = test system: T-47D breast

O=c1c2cc(S(=O)(=O)Nc3ccccc3Cl)ccc2ncn1NS(=O)(=O)c1ccc(Br)cc1
TGI (U251 CNS): > 37.5 µM | TGI (UO-31 renal): > 37.5 µM | TGI (MDA-MB-231 breast): > 37.5 µM | TGI (SK-MEL-28 melanoma): > 37.5 µM | TGI (HOP-92 NSCLC): > 37.5 µM | TGI (DU-145 prostate): > 37.5 µM | TGI (MDA-MB-435): > 37.5 µM | TGI (786-0 renal): > 37.5 µM | TGI (HL-60(TB) leukemia): > 37.5 µM | TGI (SF-268 CNS): > 37.5 µM | TGI (HS 578T breast): > 37.5 µM | TGI (SR leukemia): > 37.5 µM | TGI (M14 melanoma): > 37.5 µM | TGI (NCI-H23 lung): > 37.5 µM | TGI (LOX IMVI melanoma): > 37.5 µM | TGI (UACC-257 melanoma): > 37.5 µM | TGI (PC-3 prostate): > 37.5 µM | TGI (NCI-H226 lung): > 37.5 µM | TGI (OVCAR-8 ovarian): > 37.5 µM | TGI (MOLT-4 leukemia): > 37.5 µM | TGI (CAKI-1 renal): > 37.5 µM | TGI (SK-MEL-2 melanoma): > 37.5 µM | TGI (K-562 leukemia): > 37.5 µM | TGI (CCRF-CEM leukemia): > 37.5 µM | TGI (UACC-62 melanoma): > 37.5 µM | TGI (TK-10 renal): > 37.5 µM | TGI (HT29 colon): > 37.5 µM | TGI (MDA-N): > 37.5 µM | TGI (ACHN renal): > 37.5 µM | TGI (MCF7 breast): > 37.5 µM | TGI (SW-620 colon): > 37.5 µM | TGI (SN12C renal): > 37.5 µM | TGI (OVCAR-3 ovarian): > 37.5 µM | TGI (NCI-H460 lung): > 37.5 µM | TGI (OVCAR-4 ovarian): > 37.5 µM | TGI (NCI-H522 lung): > 37.5 µM | TGI (SNB-75 CNS): > 37.5 µM | TGI (BT-549 breast): > 37.5 µM | TGI (HCC-2998 colon): > 37.5 µM | TGI (HCT-116 colon): > 37.5 µM | TGI (EKVX NSCLC): > 37.5 µM | TGI (RPMI-8226 leukemia): > 37.5 µM | TGI (A549 NSCLC): > 37.5 µM | TGI (HCT-15 colon): > 37.5 µM | TGI (SNB-19 CNS): > 37.5 µM | TGI (NCI/ADR-RES ovarian): > 37.5 µM | TGI (KM12 colon): > 37.5 µM | TGI (SF-539 CNS): > 37.5 µM | TGI (COLO 205 colon): > 37.5 µM | TGI (IGROV1 ovarian): > 37.5 µM | TGI (HOP-62 NSCLC): > 37.5 µM | TGI (SF-295 CNS): > 37.5 µM | TGI (MALME-3M melanoma): > 37.5 µM | TGI (SK-OV-3 ovarian): > 37.5 µM | TGI (OVCAR-5 ovarian): > 37.5 µM

CC1=C/C(=N\OCC(=O)O)CC(c2ccc(C(C)C)cc2)C1 (stereo not drawn)
TGI (U251 CNS): > 100 µM | TGI (MDA-MB-231 breast): > 100 µM | TGI (RXF 393 renal): > 100 µM | TGI (HOP-92 NSCLC): > 100 µM | TGI (DU-145 prostate): > 100 µM | TGI (MDA-MB-435): > 100 µM | TGI (786-0 renal): > 100 µM | TGI (HL-60(TB) leukemia): > 100 µM | TGI (HS 578T breast): > 100 µM | TGI (SR leukemia): > 100 µM | TGI (M14 melanoma): > 100 µM | TGI (UACC-257 melanoma): > 100 µM | TGI (PC-3 prostate): > 100 µM | TGI (OVCAR-8 ovarian): > 100 µM | TGI (MOLT-4 leukemia): 68.1 µM | TGI (CAKI-1 renal): > 100 µM | TGI (SK-MEL-2 melanoma): > 100 µM | TGI (K-562 leukemia): > 100 µM | TGI (CCRF-CEM leukemia): > 100 µM | TGI (UACC-62 melanoma): > 100 µM | TGI (HT29 colon): 37.6 µM | TGI (MDA-N): > 100 µM | TGI (MCF7 breast): > 100 µM | TGI (SW-620 colon): > 100 µM | TGI (SN12C renal): > 100 µM | TGI (SK-MEL-5 melanoma): 34.1 µM | TGI (NCI-H460 lung): > 100 µM | TGI (NCI-H522 lung): 79.1 µM | TGI (HCT-116 colon): > 100 µM | TGI (EKVX NSCLC): > 100 µM | TGI (RPMI-8226 leukemia): 57.1 µM | TGI (A549 NSCLC): > 100 µM | TGI (HCT-15 colon): 71.9 µM | TGI (T-47D breast): > 100 µM | TGI (NCI/ADR-RES ovarian): 75.5 µM | TGI (KM12 colon): > 100 µM | TGI (SF-539 CNS): > 100 µM | TGI (COLO 205 colon): > 100 µM | TGI (IGROV1 ovarian): > 100 µM | TGI (SF-295 CNS): > 100 µM | TGI (MALME-3M melanoma): > 100 µM | TGI (SK-OV-3 ovarian): > 100 µM | TGI (OVCAR-5 ovarian): > 100 µM
